Series [1] concerns M-CSF dependent bone marrow macrophages (MDBMs). In words: In vitro osteoclast differentiation assay (TRAP activity). The class given is cell-based, mouse. The following applies: MDBMs with hM-CSF and rhsRANKL for 4 days. The method, then:
To prepare macrophage colony-stimulating factor (M-CSF) dependent bone marrow macrophages (MDBMs), bone marrow cells were obtained from the femurs of male BALB/c mice (CLEA Japan) and adherent cells were cultured with human M-CSF (hM-CSF; 10000 U/mL) for 6 days. MDBMs were collected and cultured with hM-CSF (10000 U/mL) and recombinant human soluble RANKL (rhsRANKL)-GST (5 nM) for 4 days (25000 cells/well in a 96 well flat plate) for induction of differentiation into osteoclasts. Test compounds were then added to the culture media at the indicated concentration. TRAP activities were measured using the commercially available TRACP and ALP Assay Kit (TAKARA BIO INC).

Series [2] in a line: Body weight change in the bone disease model. In kind it is in vivo, BALB/c nude mice. The following applies: 4 weeks of treatment; TAS-115 200 mg/kg, crizotinib 100 mg/kg, sunitinib 40 mg/kg with crizotinib 100 mg/kg, oral once daily. The method, then: Changes in body weight (BW) during the dosing period were determined using body weight change (BWC; %) as an indicator, which was calculated using the following formula: BWC; % = 100 × ((BW on each measurement day)–(BWday 0)) / (BWday 0). BWday 0 is the BW on the allocation day. The schedule for the in vivo study is depicted in the Supporting Information (S1 Fig).

Series [3] deals with A549-Luc-BM1-implanted tibiae. In words: CD31 staining, microvessel density in bone lesion. The following applies: 2 weeks oral; TAS-115 100 mg/kg, cabozantinib 15, crizotinib 100, sunitinib 40 mg/kg; vs control. The class given is in vivo, BALB/c nude mice. The method, then: (§1) On day 15, the mice were euthanized by cervical dislocation under isoflurane anesthesia, and their tibiae were collected. For CD31 staining, frozen sections (3 μm thick) were prepared using Kawamoto’s film method. Purified Rat Anti-Mouse CD31 (1:100, BD Pharmingen^TM) was detected using Simple Stain^TM Mouse MAX PO (Rat) (Nichirei) and 3,3’-diaminobenzidine (Dako, Glostrup, Denmark). For Ki-67 and TRAP staining, formalin-fixed paraffin-embedded sections (2 μm thick) were prepared. Anti-human Ki-67 Rabbit Monoclonal Antibody (1:50, Epitomics) was detected using the EnVisionTM^+ System (Dako). TRAP staining was performed using the TRAP/ALP Stain Kit (Wako Pure chemical Industries, Ltd.). To quantify each staining, whole slides were scanned under 20× magnification with the Aperio Scan-Scope XT Slide Scanner (Aperio Technologies, Inc., CA). To quantify CD31-positive microvessels as microvessel density (MVD, number/mm^2), four fields of tumor area per section excluding bone and necrotic tissue were analyzed by using Image-Pro Plus (Media Cybernetics, Inc., Carlsbad, CA). The mean values of the four areas were considered as the MVD of each animal. […] Ki-67-positive cells and total tumor cells were counted by using Image-Pro Plus. The Ki-67 index is expressed as a percentage (the number of Ki-67-positive tumor cells / the total number of the tumor cells × 100). The numbers of TRAP-positive osteoclasts were counted, and are expressed as the TRAP-positive osteoclast labeling index, (the number of TRAP-positive cells / the length of the boundary between tumor and trabecular bone (number/mm)). Cells that were TRAP-positive, had more than one nucleus, and were found on the surface of the bone, were identified as osteoclasts. The boundary length was calculated by Image-Pro Plus. All histopathological analyses were conducted in a blinded manner.

The test system of series [4] is TRAP-positive osteoclasts at tumor-bone boundary. In words: TRAP staining of A549-Luc-BM1-implanted tibiae, osteoclast number. The class given is in vivo, BALB/c nude mice. The settings on record: 2 weeks oral; TAS-115 200, cabozantinib 15, sunitinib 40, crizotinib 100 mg/kg, combination; vs control. The method, then:
as §1, with “CA).” for “CA). The mean values of the four areas were considered as the MVD of each animal.”, “The numbers of TRAP-positive osteoclasts were counted, and are expressed as the TRAP-positive osteoclast labeling index, (the number of TRAP-positive cells / the length of the boundary between tumor and trabecular bone (number/mm)). Cells that were TRAP-positive, had more than one nucleus, and were found on the surface of the bone, were identified as osteoclasts.” left out, “All histopathological analyses were conducted in a blinded manner.” left out

Series [5] has as its system FMS, ERK1/2 and AKT phosphorylation in MDBMs. Briefly: In vitro MDBM signaling, M-CSF-stimulated FMS phosphorylation. The class given is cell-based, mouse. The following applies: 1 hr incubation, Western blotting. The method, then: (§2) For analysis of the expression and phosphorylation levels of FMS, MET and VEGFR2, MDBMs were cultured with hM-CSF (20000 U/mL) for 4 days (400000 cells/dish in Suspension Culture Dishes (Corning Inc., NY). The phosphorylation levels of FMS and downstream signaling molecules were then analyzed in these MDBMs following incubation for 1 hr with test compounds at the indicated concentration. The phosphorylation of MET or VEGFR2 was analyzed in these MDBMs following stimulation with rhHGF (100 ng/mL, 10 min) or rhVEGF (100 ng/mL, 5 min), respectively. After incubation, the MDBMs were harvested, the cells were lysed and target signaling proteins were detected by immunoblotting. For analysis of VEGFR2 and its phosphorylated form, the lysate was immunoprecipiated with an anti-VEGFR antibody prior to immunoblotting.
(In general: A western blot detects proteins with antibodies after separation by electrophoresis.)

In series [6] the test system is VEGFR2 phosphorylation in MDBMs. In words: In vitro MDBM signaling, rhVEGF-induced VEGFR2 phosphorylation. The class given is cell-based, mouse. The following applies: rhVEGF 100 ng/mL 5 min, immunoprecipitation and Western blotting. The method, then:
as §2

The subject of a further series is A549-Luc-BM1 cells. In words: Proliferation of A549-Luc-BM1 cells (CellTiter-Glo). The class given is cell-based. The following applies: Homo sapiens, 72 hr post drug addition, read-out: 50% growth inhibitory concentration (GI50) for A549-Luc-BM1 cells. The method, then:
Supplementary file pone.0164830.s002.tif: S2 Fig The effect of TAS-115 on the proliferation of A549-Luc-BM1 cells. A549-Luc-BM1 cells were seeded on 96 well plates at a density of 10^3 cells/well in RPMI1640 containing 10% FBS. […] At 72 hr post drug addition, cell viability was determined using CellTiter-Glo^TM. The 50% growth inhibition (GI50) values were determined using SAS version 9.2. (TIF) Click here for additional data file.
For orientation: ATP-based viability assays read luminescence as a measure of living cells.

For another series, the target named is VEGFR2 (Homo sapiens, UniProt P35968). Briefly: In vitro kinase assay, VEGFR2. The class given is biochemical. The following applies: assay as described previously [16]. The method, then: Enzyme inhibition studies were performed using LANCE® Ultra TR-FRET assay technology. Briefly, 0.03 μg/mL dephospho-rhFMS and 100 nM ULightTM-poly GT (4:1) (PerkinElmer) were mixed and incubated for 40 min at 25°C in 10 μL of reaction mixture containing 100 μM ATP, 15 mM tris (hydroxymethyl) aminomethane (Tris (pH 7.5)), 0.01% (v/v) Tween 20, 5 mM MgCl2, 2 mM dithiothreitol and various concentrations of the test compound. […] By referring to the TR-FRET signals of positive (no inhibitor) and negative (EDTA was added before the reaction was started) control wells, the percent inhibition of each well was calculated and the half-maximal inhibitory concentration (IC50) value was determined using a four-parameter sigmoidal equation. The assay of MET and VEGFR2 kinase activity was performed as described previously.
VEGFR2, sequence (P35968 20-1356, species assumed): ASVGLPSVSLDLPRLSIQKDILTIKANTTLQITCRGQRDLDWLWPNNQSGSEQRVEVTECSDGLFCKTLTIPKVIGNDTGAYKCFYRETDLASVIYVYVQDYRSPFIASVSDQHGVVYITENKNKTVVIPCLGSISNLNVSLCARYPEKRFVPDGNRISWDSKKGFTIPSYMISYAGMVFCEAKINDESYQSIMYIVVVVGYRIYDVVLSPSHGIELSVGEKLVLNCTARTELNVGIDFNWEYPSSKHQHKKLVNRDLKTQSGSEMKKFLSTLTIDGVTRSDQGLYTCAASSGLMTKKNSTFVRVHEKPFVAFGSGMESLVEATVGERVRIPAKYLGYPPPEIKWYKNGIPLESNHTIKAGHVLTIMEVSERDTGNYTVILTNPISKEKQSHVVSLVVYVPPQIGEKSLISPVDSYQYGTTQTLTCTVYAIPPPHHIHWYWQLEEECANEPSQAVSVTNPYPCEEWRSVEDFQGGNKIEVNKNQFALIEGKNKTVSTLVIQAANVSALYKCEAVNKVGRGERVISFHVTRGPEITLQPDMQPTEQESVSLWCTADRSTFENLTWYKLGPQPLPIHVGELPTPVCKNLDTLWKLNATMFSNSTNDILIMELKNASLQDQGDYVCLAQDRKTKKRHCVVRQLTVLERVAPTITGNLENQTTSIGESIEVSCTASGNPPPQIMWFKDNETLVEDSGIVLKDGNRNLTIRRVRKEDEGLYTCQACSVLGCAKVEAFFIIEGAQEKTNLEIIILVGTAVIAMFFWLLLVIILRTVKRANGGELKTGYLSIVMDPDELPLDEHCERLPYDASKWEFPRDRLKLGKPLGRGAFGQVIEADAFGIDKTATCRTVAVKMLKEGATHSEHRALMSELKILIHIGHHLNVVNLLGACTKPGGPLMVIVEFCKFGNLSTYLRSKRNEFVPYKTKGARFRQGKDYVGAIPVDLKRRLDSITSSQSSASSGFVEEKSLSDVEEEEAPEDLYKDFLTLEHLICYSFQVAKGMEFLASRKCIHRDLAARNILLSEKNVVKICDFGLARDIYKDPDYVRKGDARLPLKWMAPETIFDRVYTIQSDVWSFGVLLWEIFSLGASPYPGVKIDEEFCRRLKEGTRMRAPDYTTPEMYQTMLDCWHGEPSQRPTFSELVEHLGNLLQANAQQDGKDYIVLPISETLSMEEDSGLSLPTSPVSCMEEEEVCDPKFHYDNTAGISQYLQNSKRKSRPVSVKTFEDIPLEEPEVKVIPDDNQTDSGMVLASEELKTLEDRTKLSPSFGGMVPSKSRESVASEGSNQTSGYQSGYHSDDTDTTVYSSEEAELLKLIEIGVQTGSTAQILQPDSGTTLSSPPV

`CNC(=O)c1cc2c(Oc3ccc(NC(=S)NC(=O)Cc4ccccc4)cc3F)ccnc2cc1OC` [TAS-115, 4-[2-fluoro-4-[[[(2-phenylacetyl)amino]thioxomethyl]amino]-phenoxy] -7-methoxy-N-methyl-6-quinolinecarboxamide]: in series [1], the “concentration that potently inhibited / markedly affected RANKL and M-CSF-induced mouse osteoclast formation” value came to 0.3 µM. For the same compound, the “effect on body weight” value in series [2] is recorded as “did not cause body weight loss”. Further, the “microvessel density (MVD) within the tumor area in the bone lesion” value in series [3] is recorded as “significantly reduced”. Moreover, in series [4], the “number of TRAP-positive osteoclasts at tumor-bone boundary” value was “significantly decreased”. In series [5], the “concentration markedly inhibiting M-CSF-stimulated phosphorylation of FMS, ERK1/2 and AKT” value was “greater than 0.03 μM”. The “concentration inhibiting the phosphorylation of VEGFR2” value in series [6] is “greater than 0.03 μM”. Moreover, in the series on A549-Luc-BM1 cells, the GI50 is 11.2 µM. Further, the IC50 on VEGFR2 is 0.03 µM.

In general, IC50 refers to the concentration that gives 50% inhibition. Read a low IC50 as inhibition by little substance.

The values are drawn from PMC5063576, “High Potency VEGFRs/MET/FMS Triple Blockade by TAS-115 Concomitantly Suppresses Tumor Progression and Bone Destruction in Tumor-Induced Bone Disease Model with Lung Carcinoma Cells” (PLoS ONE, 2016).
